Where two headings read alike, the source gives them in different places.
Assays:
[1] = system: Lung adenocarcinoma (pleural effusion); experiment: MiCK assay, drug-induced apoptosis, Table 4 tumor B1; format: cell-based, human
Excerpt: (§1) Data were obtained optically using Mie light-scattering.
(§2) Patients: Three patients were included in this study. […] Patient A was diagnosed with pancreatic islet cell cancer; sample 1 was collected from lymph node and sample 2 was collected from the primary tumor. Patient B was diagnosed with lung cancer NSCLC adenocarcinoma; sample 1 was collected from pleural effusion and sample 2 was collected from solid tumor. […] Ages of the patients ranged from 51-79 years old with an average age of 65 years. One patient was […] and two were female.

[2] = system: Lung adenocarcinoma (site B); experiment: MiCK assay, drug-induced apoptosis, Table 4 tumor C2
Experimental: (§4) After overnight incubation, chemotherapy drugs were added to the wells of the 96-well plate in 5 μL aliquots or to the wells of a 384-well plate in 2.5 μL aliquots using an automated pipettor. The number of drugs or drug combinations and the number of concentrations tested depended on the number of viable malignant cells that were isolated from the tumor specimen. The drug concentrations, determined by molarity, were those indicated by the manufacturer as the desired blood level concentration plus or minus one serial dilution if enough cells were available.
(§5) Following drug addition, the plate was incubated for 30 min. at 37° C. in a 5% carbon dioxide humidified atmosphere incubator. Each well was then overlayed with sterile mineral oil, and the plate was placed into the incubator chamber of a microplate spectrophotometric reader. The optical density at 600 nanometers was read and recorded every 5 minutes over a period of 48 hours. Optical density increases, which correlates with apoptosis, were converted to kinetic units (KU) of apoptosis by a proprietary software ProApo with a formula described in the Kravtsov reference incorporated by reference (i.e. Kravtsov V. et al. “Use of the Microculture Kinetic Assay of apoptosis to determine chemosensitivities of leukemias.” Blood 1998; 92:968-980).
(§6) Purified tumor cells were cultured for 48 hours with individual drugs, and drug-induced apoptosis was measured using the MiCK assay as described in Example 1. Data were obtained optically using Mie light-scattering.

[3] = system: NSCLC, bilateral well-differentiated adenocarcinoma (site 1A); experiment: MiCK assay, drug-induced apoptosis, Table 3 tumor B1; format: cell-based, human
Excerpt: as §1
(§3) Do a test well. […] Look at the well under the inverted microscope. […] Repeat until optimal cell concentration is found. Plate the cells into the wells.

[4] = system: Lung small cell carcinoma (site A); experiment: MiCK assay, drug-induced apoptosis, Table 4 tumor C1
Experimental: as §4
(§7) Following drug addition, the plate was incubated for 30 min. at 37° C. in a 5% carbon dioxide humidified atmosphere incubator. Each well was then overlayed with sterile mineral oil, and the plate was placed into the incubator chamber of a microplate spectrophotometric reader. The optical density at 600 nanometers was read and recorded every 5 minutes over a period of 48 hours.
(§8) Patients: Three patients were included in this study. Two tumor samples from different tumor sites were collected from each patient. Both samples from each patient were collected on the same day.

[5] = system: NSCLC, multi-focal, recurrent adenocarcinoma (lymph node); experiment: MiCK assay, drug-induced apoptosis, Table 3 tumor D2; format: cell-based, human
Excerpt: as §1, §3

[6] = system: NSCLC, multi-focal adenocarcinoma (site A); experiment: MiCK assay, drug-induced apoptosis, Table 3 tumor E1; format: cell-based, human
Excerpt: as §1, §3

[7] = system: Probable mesothelioma (pleural effusion); experiment: MiCK assay, drug-induced apoptosis, Table 3 tumor A2; format: cell-based, human
Experimental: as §1
When the optimal cell concentration is reached, put the cells in the plate and incubate overnight in the incubating chamber of the incubator (37° C.).

[8] = system: NSCLC, multi-focal adenocarcinoma (site B); experiment: MiCK assay, drug-induced apoptosis, Table 3 tumor E2; format: cell-based, human
Excerpt: as §1, §3

[9] = system: NSCLC, multi-focal, recurrent adenocarcinoma (right lung); experiment: MiCK assay, drug-induced apoptosis, Table 3 tumor D1; format: cell-based, human
Excerpt: as §1, §3

[10] = system: NSCLC, multi-focal, recurrent adenocarcinoma (site A); experiment: MiCK assay, drug-induced apoptosis, Table 3 tumor C1; format: cell-based, human
Excerpt: as §1, §3

[11] = system: Lung adenocarcinoma (solid tumor); experiment: MiCK assay, drug-induced apoptosis, Table 4 tumor B2; format: cell-based, human
Excerpt: as §1, §2

[12] = system: Pancreatic islet cell cancer (lymph node); experiment: MiCK assay, drug-induced apoptosis, Table 4 tumor A1
Experimental: as §4, §7, §8

[13] = system: NSCLC, bilateral well-differentiated adenocarcinoma (site 1B); experiment: MiCK assay, drug-induced apoptosis, Table 3 tumor B2; format: cell-based, human
Excerpt: as §1, §3

[14] = system: NSCLC, multi-focal, recurrent adenocarcinoma (site B); experiment: MiCK assay, drug-induced apoptosis, Table 3 tumor C2; format: cell-based, human
Excerpt: as §1, §3

[15] = system: Pancreatic islet cell cancer (primary tumor); experiment: MiCK assay, drug-induced apoptosis, Table 4 tumor A2; conditions: 48 hours with drug
Experimental: as §4, §5, §6

[16] = Table 4 tumor B1: Lung adenocarcinoma (pleural effusion), 48 hours with drug
[17] = Table 4 tumor C2: Lung adenocarcinoma (site B), 48 hours with drug
[18] = Table 3 tumor B1: NSCLC, bilateral well-differentiated adenocarcinoma (site 1A), 48 hours with drug
[19] = Table 4 tumor C1: Lung small cell carcinoma (site A), 48 hours with drug
[20] = Table 3 tumor D2: NSCLC, multi-focal, recurrent adenocarcinoma (lymph node), 48 hours with drug
[21] = Table 3 tumor E1: NSCLC, multi-focal adenocarcinoma (site A), 48 hours with drug
[22] = Table 3 tumor A2: Probable mesothelioma (pleural effusion), 48 hours with drug
[23] = Table 3 tumor E2: NSCLC, multi-focal adenocarcinoma (site B), 48 hours with drug
[24] = Table 3 tumor D1: NSCLC, multi-focal, recurrent adenocarcinoma (right lung), 48 hours with drug
[25] = Table 3 tumor C1: NSCLC, multi-focal, recurrent adenocarcinoma (site A), 48 hours with drug
[26] = Table 4 tumor B2: Lung adenocarcinoma (solid tumor), 48 hours with drug
[27] = Table 4 tumor A1: Pancreatic islet cell cancer (lymph node), 48 hours with drug
[28] = Table 3 tumor B2: NSCLC, bilateral well-differentiated adenocarcinoma (site 1B), 48 hours with drug
[29] = Table 3 tumor C2: NSCLC, multi-focal, recurrent adenocarcinoma (site B), 48 hours with drug

SMILES | kinetic units (KU) of apoptosis [1, 16] [KU] | kinetic units (KU) of apoptosis [2, 17] [KU] | kinetic units (KU) of apoptosis [3, 18] [KU] | kinetic units (KU) of apoptosis [4, 19] [KU] | kinetic units (KU) of apoptosis [5, 20] [KU] | kinetic units (KU) of apoptosis [6, 21] [KU] | kinetic units (KU) of apoptosis [7, 22] [KU] | kinetic units (KU) of apoptosis [8, 23] [KU] | kinetic units (KU) of apoptosis [9, 24] [KU] | kinetic units (KU) of apoptosis [10, 25] [KU] | kinetic units (KU) of apoptosis [11, 26] [KU] | kinetic units (KU) of apoptosis [12, 27] [KU] | kinetic units (KU) of apoptosis [13, 28] [KU] | kinetic units (KU) of apoptosis [14, 29] [KU] | also measured
O=P1(N(CCCl)CCCl)NCCCO1 (centres unmarked) [4HC (Cytoxan), Cytoxan] |  |  |  |  |  |  |  |  |  |  |  |  |  |  | kinetic units (KU) of apoptosis [1]: 1.20 KU; kinetic units (KU) of apoptosis [2]: 2.40 KU; kinetic units (KU) of apoptosis [3]: 1.10 KU; kinetic units (KU) of apoptosis [4]: 1.80 KU; kinetic units (KU) of apoptosis [5]: 1.20 KU; kinetic units (KU) of apoptosis [6]: 0.50 KU; kinetic units (KU) of apoptosis [7]: 3.10 KU; kinetic units (KU) of apoptosis [8]: 0.30 KU; kinetic units (KU) of apoptosis [9]: 1.20 KU; kinetic units (KU) of apoptosis [10]: 0.60 KU; kinetic units (KU) of apoptosis [11]: 2.40 KU; kinetic units (KU) of apoptosis [12]: 3.00 KU; kinetic units (KU) of apoptosis [13]: 1.20 KU; kinetic units (KU) of apoptosis [14]: 0.00 KU
N.N.O=C([O-])C1(C(=O)[O-])CCC1.[Pt+2] [Carboplatin] | 1.20 | 2.60 | 1.90 | 5.30 | 0.80 | 0.30 | 1.50 | 0.30 | 1.00 | 0.40 | 2.40 | 1.08 | 2.20 | 1.20 | kinetic units (KU) of apoptosis [15]: 1.48 KU
COc1cccc2c1C(=O)c1c(O)c3c(c(O)c1C2=O)C[C@@](O)(C(=O)CO)C[C@@H]3O[C@H]1C[C@H](N)[C@@H](O)[C@H](C)O1 [Epirubicin] | 2.70 | 3.20 | 0.90 | 8.70 |  |  | 3.80 |  | 1.40 |  | 3.50 | 1.61 | 1.20 |  | 
COc1cc([C@@H]2c3cc4c(cc3[C@@H](O[C@@H]3O[C@@H]5CO[C@@H](C)O[C@H]5[C@H](O)[C@H]3O)[C@H]3COC(=O)[C@H]23)OCO4)cc(OC)c1O [Etoposide] | 2.30 |  | 1.10 | 4.60 | 0.90 | 0.40 | 1.20 |  | 1.60 | 0.80 |  | 1.08 | 1.20 |  | kinetic units (KU) of apoptosis [15]: 0.00 KU
Nc1ccn([C@@H]2O[C@H](CO)[C@@H](O)C2(F)F)c(=O)n1 [Gemcitabine] | 1.10 | 1.30 | 1.20 | 2.20 | 0.90 | 0.30 | 0.70 | 0.50 | 0.10 | 0.00 | 3.20 | 1.08 | 1.10 | 0.70 | 
CCc1c2c(nc3ccc(OC(=O)N4CCC(N5CCCCC5)CC4)cc13)-c1cc3c(c(=O)n1C2)COC(=O)[C@]3(O)CC [Irinotecan] | 0.60 | 2.10 | 1.60 | 1.40 | 0.90 | 0.60 | 1.30 | 0.10 | 0.40 | 0.40 |  | 1.50 | 1.50 | 0.30 | kinetic units (KU) of apoptosis [15]: 1.16 KU
CN(Cc1cnc2nc(N)nc(N)c2n1)c1ccc(C(=O)N[C@@H](CCC(=O)O)C(=O)O)cc1 [Methotrexate] | 1.40 | 0.60 | 1.00 | 1.30 |  |  | 0.50 |  |  |  | 1.30 | 0.66 |  |  | 
O=C1[O][Pt]2([NH][C@@H]3CCCC[C@H]3[NH]2)[O]C1=O [Oxaliplatin] | 3.00 | 2.50 |  | 4.40 |  |  |  |  |  |  | 3.10 | 1.08 |  |  | 
CC[C@@]1(O)C(=O)OCc2c1cc1n(c2=O)Cc2cc3c(CN(C)C)c(O)ccc3nc2-1 [Topotecan] | 1.30 | 4.10 | 1.70 | 9.30 | 1.00 | 0.70 | 3.60 | 0.30 | 0.40 | 0.50 |  |  | 0.80 | 0.00 | 
CC[C@]1(O)C[C@H]2CN(CCc3c([nH]c4ccccc34)[C@@](C(=O)OC)(c3cc4c(cc3OC)N(C=O)[C@H]3[C@@](O)(C(=O)OC)[C@H](OC(C)=O)[C@]5(CC)C=CCN6CC[C@]43[C@@H]65)C2)C1 [Vincristine] | 0.90 | 1.60 | 1.30 | 1.00 | 0.90 | 0.10 | 2.80 | 0.10 | 0.40 | 0.00 |  | 0.82 | 1.50 | 0.40 | 
CCC1=C[C@@H]2CN(C1)Cc1c([nH]c3ccccc13)[C@@](C(=O)OC)(c1cc3c(cc1OC)N(C)[C@H]1[C@@](O)(C(=O)OC)[C@H](OC(C)=O)[C@]4(CC)C=CCN5CC[C@]31[C@@H]54)C2 [Vinorelbine] | 3.90 | 2.50 | 1.20 | 3.50 | 1.00 | 0.40 | 2.10 | 0.00 | 0.40 | 0.20 | 2.70 | 1.18 | 1.70 | 0.00 | 

From patent US20230184744A1, “INTERTUMORAL HOMOGENEITY DETERMINED BY MiCK ASSAY” (Pierian Biosciences, LLC, priority 2014, published 2023)
